Series [1] concerns Solanum lycopersicum. Briefly: Induction of systemic acquired resistance activity in Botrytis cinerea infected Solanum lycopersicum (tomato) leaves assessed as increase in guaiacol peroxidase activity at 0.3 mM applied as spray 24 hr prior to inoculation measured after 6 to 48 hr by colorimetric assay relative to untreated infected control. It is filed as functional, organism-based.

Series [2] relates to Solanum lycopersicum. Briefly: Induction of systemic acquired resistance activity in Solanum lycopersicum (tomato) leaves assessed as decrease in hydroxyl radical generation at 0.3 mM applied as spray 24 hr prior to inoculation measured after 2 to 48 hr by TBARS assay relative to untreated control. It is filed as functional, organism-based.
The subject of series [3] is Solanum lycopersicum. Nature of the series: Induction of systemic acquired resistance activity in Botrytis cinerea infected Solanum lycopersicum (tomato) leaves assessed as increase in H2O2 level at 0.3 mM applied as spray 24 hr prior to inoculation measured after 2 to 6 hr relative to untreated control. It is filed as functional, organism-based.
Series [4] relates to Solanum lycopersicum. Briefly: Induction of systemic acquired resistance activity in Botrytis cinerea infected Solanum lycopersicum (tomato) leaves assessed as visible lesions on leaf surface at 0.3 mM applied as spray 24 hr prior to inoculation measured after 14 days (reference value: 66%). It is filed as functional.
The test system of series [5] is Solanum lycopersicum. Nature of the series: Induction of systemic acquired resistance activity in Botrytis cinerea infected Solanum lycopersicum (tomato) leaves assessed as increase in guaiacol peroxidase activity at 0.3 mM applied as spray 24 hr prior to inoculation measured after 6 to 48 hr by colorimetric assay relative to untreated control. The format is functional, organism-based.

Series [6] concerns Solanum lycopersicum. Nature of the series: Induction of systemic acquired resistance activity in Botrytis cinerea infected Solanum lycopersicum (tomato) leaves assessed as increase in H2O2 level at 0.3 mM applied as spray 24 hr prior to inoculation measured after 2 to 6 hr relative to untreated infected control. The format is functional, organism-based.
In series [7] the test system is Solanum lycopersicum. Nature of the series: Phytotoxicity in Solanum lycopersicum (tomato) at 0.3 mM applied as spray. It is filed as organism-based. As to conditions: in vivo, other, 300 µM.
The subject of series [8] is Solanum lycopersicum. Briefly: Induction of systemic acquired resistance activity in Botrytis cinerea infected Solanum lycopersicum (tomato) leaves assessed as induction of superoxide anion radical generation at 0.3 mM applied as spray 24 hr prior to inoculation measured after 2 to 6 hr by nitro blue tetrazolium reduction assay relative to control. It is filed as functional, organism-based.

The values below come from ChEMBL document CHEMBL3044694, “Induction of disease resistance by acibenzolar-S-methyl and o-hydroxyethylorutin against Botrytis cinerea in tomato plants” (Crop Prot, 2006).

Molecules are shown by their SMILES. The source made the active and inactive calls. The rule behind the calls is not given here.

Take `CSC(=O)c1cccc2nnsc12` [ACIBENZOLAR-S-METHYL]: the outcome in the series with Solanum lycopersicum [1], in the series on Solanum lycopersicum [2], with Solanum lycopersicum [3], with Solanum lycopersicum [5], with Solanum lycopersicum [6] and with Solanum lycopersicum [8] was Active. Further, the Activity with Solanum lycopersicum [4] is given as 27%; in the series on Solanum lycopersicum [7], “Non-toxic”.
